# Results: patent publication US20260337208A1, “HETEROCYCLIC DERIVATIVES AS JANUS KINASE INHIBITORS” (CHIESI FARMACEUTICI S.P.A., priority 2022, published 2026)
# Columns and labels:
# JAK1 = JAK1 (Homo sapiens, UniProt P23458); test: Biochemical potency on JAK1, TR-FRET (LANCE Ultra kinase assay); settings: ATP corresponding to Km; cell-free; read-out: JAK1 inhibitory activity (pIC50) (converted)
# Procedure: (§1) The objective of this study was to assess the capability of compounds to inhibit all 4 JAK isoforms activity in a cell-free environment. Assay for JAK 1, JAK 2, JAK 3 and TYK2 were performed by Time-resolved fluorescence resonance energy transfer (TR-FRET) technology. It consists in the interaction of two labelled binding partners detected by the energy transfer from an excited donor to an acceptor dye and measurement of light emission by the acceptor dye. LANCE Ultra kinase assay was used. In presence of JAK 1, JAK 2, JAK 3 and TYK2 kinases and ATP (corresponding to Km), the ULight peptide substrate (LANCE Ulight-JAK-1 (Tyr1023) Peptide, Perkin Elmer, TRF0121) is phosphorylated. It is then captured by Eu-anti-phospho-substrate antibody (LANCE Eu-W1024 Anti-phosphotyrosine (PT66), Perkin Elmer, AD0069), which bring the Eu-chelate donor and ULight acceptor dyes into close proximity. Upon excitation at 320 nm, the Eu-chelate transfers its energy to the ULight dye, resulting in a fluorescent light emission at 665 nm.
# (§2) Serial dilutions of compounds in pure DMSO are prepared from 10 mM DMSO stock solutions. Compounds were tested in 384-well plate for 11 consecutive 5-fold dilutions starting from 20 μM highest concentration (20 μM-[…]). 200 nL of compound were transferred from mother plate to test plate by using Mosquito (TTP labtech). Assay was performed in 384-well Perkin Elmer test plate in 20 μL assay volume (kinase reaction) and 40 μL total volume (stopping reagent and antibody detection reagents). In 10 μL of substrate solution (peptide+ATP) 30/50/20/10 nM of peptide and 20/0.7/0.2/12 μM of ATP were added for JAK 1, JAK 2, JAK 3 and TYK2 respectively. 10 μL of enzyme solution was added to kinase reaction at these concentrations: 0.15/0.083/0.025/0.144 ng/μL of JAK 1, JAK 2, JAK 3 and TYK2 respectively. After shaking and 1.5 h of incubation at r.t., 20 μL of Stop (10 μL EDTA) and Detection mixture (10 μL Europium-anti-phospho antibody, final: 0.5 nM) were added. Reading was performed after 1 h of incubation on a En Vision 2104 reader (Perkin Elmer).
# (§3) Calculation of IC50 data, curves and QC analysis was performed by using Excel tool and GraphPadPrism software, v9. Briefly, individual concentration-effect curves are generated by plotting the logarithm of the tested concentration of tested compounds (X) vs. corresponding percent inhibition values (Y) using least squares (ordinary) fit. Best fit IC50 values are calculated using Log (inhibitor) vs. normalized response—Variable slope equation, where Y=100/(1+10^((LogIC50−X)*HillSlope)). QC criteria parameters (Z′, S:B, R2, HillSlope) were checked for every IC50 curve. Calculation of IC50 data, curves and QC analysis were made using Excel tools and GraphPadPrism software. QC criteria parameters: Z′≥0.5, Hill Slope range 0.5 to 5, S:B>2.
# [1] = test system: pSTAT6 in BEAS-2B human cell line; test: Inhibition of IL-13 induced pSTAT6 in BEAS; type: cell-based; settings: for IC50: Homo sapiens, BEAS-2B, 0.5 h, IL-13 trigger, 30 min, parent compound; for Fold difference parent vs predicted acid metabolite: ratio=IC50 predicted acid metabolite/IC50 ester
# Procedure: BEAS-2B human cell line was seeded (100.000 cells/well) and incubated for 48 h at 37° C., 5% CO2, 95% humidity. Compounds were added and incubated 30 min followed by IL-13 as trigger. After 30 min incubation, cells were lysed and pSTAT6 determined by Fastscan phospho-stat6 (Tyr641) sandwich ELISA kit (cell signaling). Inhibitors were tested at 11 consecutive 5-fold dilutions starting from 10 μM (10 μM-[…]) in duplicate. Calculation of IC50 data, curves and QC analysis were made using Excel tools and GraphPadPrism software. QC criteria parameters: Z′≥0.35, Hill Slope range 0.5 to 5, S:B>2.
# JAK3 = target: T1, JAK3 (Homo sapiens, UniProt P52333); test: Biochemical potency on JAK3, TR-FRET (LANCE Ultra kinase assay); settings: ATP corresponding to Km; cell-free; read-out: JAK3 inhibitory activity (pIC50) (converted)
# T1 sequence (P52333 1-1124): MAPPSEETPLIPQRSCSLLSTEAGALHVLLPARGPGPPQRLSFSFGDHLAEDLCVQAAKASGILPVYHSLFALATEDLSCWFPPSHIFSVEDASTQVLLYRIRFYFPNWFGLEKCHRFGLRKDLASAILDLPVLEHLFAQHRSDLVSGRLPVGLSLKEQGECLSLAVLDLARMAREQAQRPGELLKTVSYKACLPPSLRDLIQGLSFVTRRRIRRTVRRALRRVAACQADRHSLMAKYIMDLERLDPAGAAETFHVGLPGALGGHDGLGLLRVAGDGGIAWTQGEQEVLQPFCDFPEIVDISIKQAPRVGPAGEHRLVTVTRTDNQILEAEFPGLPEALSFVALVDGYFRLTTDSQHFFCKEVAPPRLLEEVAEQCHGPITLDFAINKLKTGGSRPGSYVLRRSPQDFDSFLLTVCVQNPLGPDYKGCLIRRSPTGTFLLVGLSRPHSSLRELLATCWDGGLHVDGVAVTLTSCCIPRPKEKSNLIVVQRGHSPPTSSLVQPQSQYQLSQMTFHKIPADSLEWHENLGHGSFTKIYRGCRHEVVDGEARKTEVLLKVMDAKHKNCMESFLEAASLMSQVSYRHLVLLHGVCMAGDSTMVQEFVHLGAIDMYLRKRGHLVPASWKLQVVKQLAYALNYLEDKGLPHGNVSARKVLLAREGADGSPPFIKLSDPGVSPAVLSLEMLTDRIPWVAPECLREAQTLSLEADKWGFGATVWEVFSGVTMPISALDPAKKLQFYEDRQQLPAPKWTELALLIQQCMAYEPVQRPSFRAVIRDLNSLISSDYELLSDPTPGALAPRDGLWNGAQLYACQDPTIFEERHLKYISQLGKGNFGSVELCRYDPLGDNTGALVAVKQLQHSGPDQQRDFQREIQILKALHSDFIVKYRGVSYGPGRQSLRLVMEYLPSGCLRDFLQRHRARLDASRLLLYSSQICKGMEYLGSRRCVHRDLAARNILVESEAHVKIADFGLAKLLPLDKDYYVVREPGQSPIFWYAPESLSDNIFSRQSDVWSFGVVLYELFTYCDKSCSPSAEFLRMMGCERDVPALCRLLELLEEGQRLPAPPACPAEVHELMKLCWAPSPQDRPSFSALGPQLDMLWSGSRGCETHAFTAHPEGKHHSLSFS
# Procedure: as §1, §2, §3
# JAK2 = JAK2 (Homo sapiens, UniProt O60674); test: Biochemical potency on JAK2, TR-FRET (LANCE Ultra kinase assay); settings: ATP corresponding to Km; cell-free; read-out: JAK2 inhibitory activity (pIC50) (converted)
# Sequence of JAK2 (O60674 whole entry): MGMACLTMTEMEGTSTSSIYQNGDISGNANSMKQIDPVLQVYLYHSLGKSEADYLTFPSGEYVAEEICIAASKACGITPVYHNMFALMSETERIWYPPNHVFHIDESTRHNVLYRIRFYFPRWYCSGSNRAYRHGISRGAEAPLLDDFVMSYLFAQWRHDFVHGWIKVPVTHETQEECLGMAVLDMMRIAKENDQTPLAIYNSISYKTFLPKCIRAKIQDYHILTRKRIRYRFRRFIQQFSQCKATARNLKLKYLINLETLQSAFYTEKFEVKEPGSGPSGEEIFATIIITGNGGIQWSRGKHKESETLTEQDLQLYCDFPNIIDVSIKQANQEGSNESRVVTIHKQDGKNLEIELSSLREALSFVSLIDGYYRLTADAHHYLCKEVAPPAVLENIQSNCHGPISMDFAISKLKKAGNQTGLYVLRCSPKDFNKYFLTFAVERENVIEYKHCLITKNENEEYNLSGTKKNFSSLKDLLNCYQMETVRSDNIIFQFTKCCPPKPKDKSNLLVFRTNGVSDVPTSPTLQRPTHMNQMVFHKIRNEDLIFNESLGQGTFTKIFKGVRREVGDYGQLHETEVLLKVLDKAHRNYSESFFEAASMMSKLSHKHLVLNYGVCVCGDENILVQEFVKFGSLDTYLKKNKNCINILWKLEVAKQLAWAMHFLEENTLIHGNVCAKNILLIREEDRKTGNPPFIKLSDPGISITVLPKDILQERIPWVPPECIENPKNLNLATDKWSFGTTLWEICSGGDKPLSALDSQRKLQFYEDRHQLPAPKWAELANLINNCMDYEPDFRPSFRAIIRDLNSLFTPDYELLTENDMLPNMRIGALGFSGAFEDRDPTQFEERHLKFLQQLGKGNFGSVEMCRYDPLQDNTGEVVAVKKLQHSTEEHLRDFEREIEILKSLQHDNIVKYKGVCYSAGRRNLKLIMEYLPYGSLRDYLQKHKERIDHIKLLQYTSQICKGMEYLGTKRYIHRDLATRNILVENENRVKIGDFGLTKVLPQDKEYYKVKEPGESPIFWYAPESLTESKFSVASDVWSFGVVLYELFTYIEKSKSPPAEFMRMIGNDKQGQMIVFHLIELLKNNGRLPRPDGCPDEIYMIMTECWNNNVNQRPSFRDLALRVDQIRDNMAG
# Procedure: as §1, §2, §3
# TYK2 = TYK2 (Homo sapiens, UniProt P29597); test: Biochemical potency on Tyk2, TR-FRET (LANCE Ultra kinase assay); settings: ATP corresponding to Km; cell-free; read-out: TYK2 inhibitory activity (pIC50) (converted)
# Sequence of TYK2 (P29597 whole entry): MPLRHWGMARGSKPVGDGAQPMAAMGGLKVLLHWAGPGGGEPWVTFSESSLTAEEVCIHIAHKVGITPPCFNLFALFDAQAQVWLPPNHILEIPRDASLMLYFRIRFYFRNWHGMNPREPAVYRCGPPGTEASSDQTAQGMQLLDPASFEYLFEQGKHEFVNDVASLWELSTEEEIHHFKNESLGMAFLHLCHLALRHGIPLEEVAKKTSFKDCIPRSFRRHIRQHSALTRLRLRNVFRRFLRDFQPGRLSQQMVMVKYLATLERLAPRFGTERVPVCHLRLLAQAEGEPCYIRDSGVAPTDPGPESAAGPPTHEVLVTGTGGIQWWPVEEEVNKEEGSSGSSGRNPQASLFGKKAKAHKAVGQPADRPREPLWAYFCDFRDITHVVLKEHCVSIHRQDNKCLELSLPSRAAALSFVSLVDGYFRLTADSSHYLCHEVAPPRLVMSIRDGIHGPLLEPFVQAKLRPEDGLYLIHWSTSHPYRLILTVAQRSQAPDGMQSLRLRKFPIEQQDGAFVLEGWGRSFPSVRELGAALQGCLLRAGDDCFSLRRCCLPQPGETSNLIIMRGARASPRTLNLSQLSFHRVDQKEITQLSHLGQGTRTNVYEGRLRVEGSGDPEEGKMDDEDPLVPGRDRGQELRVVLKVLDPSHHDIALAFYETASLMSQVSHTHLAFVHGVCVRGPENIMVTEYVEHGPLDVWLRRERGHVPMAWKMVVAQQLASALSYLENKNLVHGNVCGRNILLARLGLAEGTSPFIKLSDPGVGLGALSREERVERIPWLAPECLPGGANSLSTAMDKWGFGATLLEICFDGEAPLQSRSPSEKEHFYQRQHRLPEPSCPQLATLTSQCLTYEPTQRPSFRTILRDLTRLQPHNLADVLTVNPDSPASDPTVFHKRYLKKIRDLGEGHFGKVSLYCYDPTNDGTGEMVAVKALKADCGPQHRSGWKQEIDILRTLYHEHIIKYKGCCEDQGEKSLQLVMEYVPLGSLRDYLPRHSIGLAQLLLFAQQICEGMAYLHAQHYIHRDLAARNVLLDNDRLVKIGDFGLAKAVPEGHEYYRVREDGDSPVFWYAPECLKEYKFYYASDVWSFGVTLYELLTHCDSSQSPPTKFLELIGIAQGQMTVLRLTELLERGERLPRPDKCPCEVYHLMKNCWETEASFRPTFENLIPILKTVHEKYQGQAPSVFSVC
# Procedure: as §1, §2, §3
# Sequence of JAK1 (P23458 whole entry, canonical isoform): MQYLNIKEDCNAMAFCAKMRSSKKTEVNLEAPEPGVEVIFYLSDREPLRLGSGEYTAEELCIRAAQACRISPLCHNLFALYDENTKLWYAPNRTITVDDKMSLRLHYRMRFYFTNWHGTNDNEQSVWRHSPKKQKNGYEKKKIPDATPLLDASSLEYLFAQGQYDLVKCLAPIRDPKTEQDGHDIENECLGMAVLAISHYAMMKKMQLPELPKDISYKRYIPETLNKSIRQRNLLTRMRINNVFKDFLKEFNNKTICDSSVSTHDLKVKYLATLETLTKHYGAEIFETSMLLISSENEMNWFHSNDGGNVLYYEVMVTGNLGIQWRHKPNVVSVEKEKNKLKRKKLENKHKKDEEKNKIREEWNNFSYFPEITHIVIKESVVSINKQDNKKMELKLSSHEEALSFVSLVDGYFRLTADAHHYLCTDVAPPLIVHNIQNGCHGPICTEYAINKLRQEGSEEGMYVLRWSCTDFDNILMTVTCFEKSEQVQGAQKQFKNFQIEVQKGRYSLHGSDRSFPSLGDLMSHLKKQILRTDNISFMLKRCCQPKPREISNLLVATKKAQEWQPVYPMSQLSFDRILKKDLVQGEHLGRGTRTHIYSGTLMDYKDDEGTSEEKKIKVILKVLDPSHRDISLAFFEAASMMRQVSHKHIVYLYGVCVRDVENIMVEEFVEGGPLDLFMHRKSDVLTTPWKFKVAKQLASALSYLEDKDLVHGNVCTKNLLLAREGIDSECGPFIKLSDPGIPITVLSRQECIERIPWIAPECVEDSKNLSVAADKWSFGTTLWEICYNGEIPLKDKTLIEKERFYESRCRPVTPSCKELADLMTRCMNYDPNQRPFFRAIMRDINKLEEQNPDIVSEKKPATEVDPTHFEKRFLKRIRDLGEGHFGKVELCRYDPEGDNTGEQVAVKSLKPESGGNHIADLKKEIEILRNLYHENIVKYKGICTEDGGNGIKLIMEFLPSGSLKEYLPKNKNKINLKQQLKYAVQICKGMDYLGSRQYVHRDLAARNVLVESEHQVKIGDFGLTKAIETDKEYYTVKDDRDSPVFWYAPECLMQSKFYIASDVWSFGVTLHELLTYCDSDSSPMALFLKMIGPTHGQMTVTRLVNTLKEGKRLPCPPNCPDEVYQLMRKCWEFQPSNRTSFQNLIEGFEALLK
SMILES,IC50 (JAK1) [nM],IC50 [1] [nM],IC50 (JAK3) [nM],IC50 (JAK2) [nM],IC50 (TYK2) [nM],Fold difference parent vs predicted acid metabolite [1]
"COC(=O)Cc1cccc(CN(C)CCNC(=O)c2nn(-c3cc4c(cc3OC)NCCO4)c3cc(-c4cnn5cccnc45)ncc23)c1 [Example 37, methyl 2-(3-(((2-(1-(6-methoxy-3,4-dihydro-2H-benzo[b][1,4]oxazin-7-yl)-6-(pyrazolo[1,5-a]pyrimidin-3-yl)-1H-pyrazolo[4,3-c]pyridine-3-carboxamido)ethyl)(methyl)amino)methyl)phenyl)acetate]",5.01 to 50.1,5.01 to 50.1,≤ 5.01,≤ 5.01,5.01 to 50.1,–
"CCOC(=O)C1CCN(CCNC(=O)c2nn(-c3cc4c(cc3OC)NCCS4)c3cc(-c4cnn5cccnc45)ncc23)CC1 [Example 1, ethyl 1-(2-(1-(6-methoxy-3,4-dihydro-2H-benzo[b][1,4]thiazin-7-yl)-6-(pyrazolo[1,5-a]pyrimidin-3-yl)-1H-pyrazolo[4,3-c]pyridine-3-carboxamido)ethyl)piperidine-4-carboxylate]",≤ 5.01,≤ 5.01,≤ 5.01,≤ 5.01,≤ 5.01,kk (100>ratio≥10)
"COC(=O)[C@@H]1CCN(CCNC(=O)c2nn(-c3cc4c(cc3OC)NCCO4)c3cc(-c4cnn5cccnc45)ncc23)C1 [Example 29, methyl (R)-1-(2-(1-(6-methoxy-3,4-dihydro-2H-benzo[b][1,4]oxazin-7-yl)-6-(pyrazolo[1,5-a]pyrimidin-3-yl)-1H-pyrazolo[4,3-c]pyridine-3-carboxamido)ethyl)pyrrolidine-3-carboxylate]",≤ 5.01,≤ 5.01,≤ 5.01,≤ 5.01,5.01 to 50.1,kkk (200>ratio≥100)
"COc1cc2c(cc1-n1nc(C(=O)NCCN3CCC(C(=O)OCC(C)(C)N(C)C)CC3)c3cnc(-c4cnn5cccnc45)cc31)OCCN2 [Example 20, 2-(dimethylamino)-2-methylpropyl 1-(2-(1-(6-methoxy-3,4-dihydro-2H-benzo[b][1,4]oxazin-7-yl)-6-(pyrazolo[1,5-a]pyrimidin-3-yl)-1H-pyrazolo[4,3-c]pyridine-3-carboxamido)ethyl)piperidine-4-carboxylate]",≤ 5.01,5.01 to 50.1,≤ 5.01,≤ 5.01,5.01 to 50.1,kkk (200>ratio≥100)
"COc1cc2c(cc1-n1nc(C(=O)NCCN3CCC(C(=O)OC4CN(C(C)C)C4)CC3)c3cnc(-c4cnn5cccnc45)cc31)OCCN2 [Example 57, 1-isopropylazetidin-3-yl 1-(2-(1-(6-methoxy-3,4-dihydro-2H-benzo[b][1,4]oxazin-7-yl)-6-(pyrazolo[1,5-a]pyrimidin-3-yl)-1H-pyrazolo[4,3-c]pyridine-3-carboxamido)ethyl)piperidine-4-carboxylate]",≤ 5.01,5.01 to 50.1,≤ 5.01,≤ 5.01,5.01 to 50.1,kkk (200>ratio≥100)
"COc1cc2c(cc1-n1nc(C(=O)NCCN3CCC(C(=O)OC4CCN(C)CC4)CC3)c3cnc(-c4cnn5cccnc45)cc31)OCCN2 [Example 42, 1-methylpiperidin-4-yl 1-(2-(1-(6-methoxy-3,4-dihydro-2H-benzo[b][1,4]oxazin-7-yl)-6-(pyrazolo[1,5-a]pyrimidin-3-yl)-1H-pyrazolo[4,3-c]pyridine-3-carboxamido)ethyl)piperidine-4-carboxylate]",≤ 5.01,5.01 to 50.1,≤ 5.01,≤ 5.01,5.01 to 50.1,kkk (200>ratio≥100)
"COc1cc2c(cc1-n1nc(C(=O)OCC3CN(C)CCO3)c3cnc(-c4cnn5cccnc45)cc31)OCCN2 (stereo not shown) [Example 46, (4-methylmorpholin-2-yl)methyl 1-(6-methoxy-3,4-dihydro-2H-benzo[b][1,4]oxazin-7-yl)-6-(pyrazolo[1,5-a]pyrimidin-3-yl)-1H-pyrazolo[4,3-c]pyridine-3-carboxylate]",≤ 5.01,5.01 to 50.1,≤ 5.01,≤ 5.01,5.01 to 50.1,kkk (200>ratio≥100)
"COc1cc2c(cc1-n1nc(C(=O)NCCN3CCC(C(=O)OCC(C)(C)O)CC3)c3cnc(-c4cnn5cccnc45)cc31)OCCN2 [Example 14, 2-hydroxy-2-methylpropyl 1-(2-(1-(6-methoxy-3,4-dihydro-2H-benzo[b][1,4]oxazin-7-yl)-6-(pyrazolo[1,5-a]pyrimidin-3-yl)-1H-pyrazolo[4,3-c]pyridine-3-carboxamido)ethyl)piperidine-4-carboxylate]",≤ 5.01,≤ 5.01,≤ 5.01,≤ 5.01,5.01 to 50.1,kkkk (ratio≥200)
"COc1cc2c(cc1-n1nc(C(=O)OCCCN3CCN(C)CC3)c3cnc(-c4cnn5cccnc45)cc31)SCCN2 [Example 8, 3-(4-methylpiperazin-1-yl)propyl 1-(6-methoxy-3,4-dihydro-2H-benzo[b][1,4]thiazin-7-yl)-6-(pyrazolo[1,5-a]pyrimidin-3-yl)-1H-pyrazolo[4,3-c]pyridine-3-carboxylate]",≤ 5.01,5.01 to 50.1,≤ 5.01,≤ 5.01,≤ 5.01,–
